In US6989389B2, “Aryl ether substituted imidazoquinolines” (3M Innovative Properties Co., priority 2000, dated 2006):
Structures can show the parent of a compound that is named as a salt. Where two headings read alike, the source gives them in different places.

What was measured:
[1] = system: Peripheral blood mononuclear cells (PBMC); experiment: Cytokine Induction in Human Cells (in vitro human blood cell system, IFN and TNF secreted into culture media); type: cell-based; design: key to Lowest Effective Concentration (μM) Tumor Necrosis Factor / Lowest Effective Concentration (μM) Interferon: *: no induction was seen at any of the tested concentrations; settings: 18 to 24 hours, tested 30-0.014 μM
Procedure, shortened: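 Human donor PBMC (2×10^6 cells/mL, RPMI complete) incubated 18–24 h at 37 °C, 5% CO2 with compound, 3-fold dilutions 30–0.014 μM, ≤1% DMSO. IFN-α measured by ELISA, TNF-α by ELISA or IGEN immunoassay in supernatants (pg/mL). Value is lowest concentration inducing each cytokine.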

[2] = Homo sapiens, PBMC, lowest concentration found to induce interferon (α), ELISA, read-out: Lowest Effective Concentration (μM) Interferon
[3] = lowest concentration found to induce tumor necrosis factor (α), ELISA or IGEN assay
[4] = Homo sapiens, PBMC, lowest concentration found to induce tumor necrosis factor (α), ELISA or IGEN assay, read-out: Lowest Effective Concentration (μM) Tumor Necrosis Factor
[5] = lowest concentration found to induce interferon (α), ELISA

Structure (SMILES) | minimal effective concentration [1, 2] [µM] | Lowest Effective Concentration (μM) Tumor Necrosis Factor [1, 3] | melting point [°C] | minimal effective concentration [1, 4] [µM] | Lowest Effective Concentration (μM) Interferon [1, 5] | minimal effective concentration ([1]; lowest concentration found to induce interferon (α), ELISA, read-out: Lowest Effective Concentration (μM) Interferon) [µM]
Nc1nc2ccccc2c2c1nc(CCC1CCCC1)n2CCOc1ccccc1 [Example 138, 2-(2-Cyclopentylethyl)-1-(2-phenoxyethyl)-1H-imidazo[4,5-c]quinolin-4-amine] | 1.11 | * | 165 | – | – | –
CNS(=O)(=O)c1ccc(C)c(CCCOCCn2cnc3c(N)nc4ccccc4c32)c1 [Example 6, N^1,4-Dimethyl-3-{3-[2-(4-amino-1H-imidazo[4,5-c]quinolin-1-yl)ethoxy]propyl}-1-benzensulfonamide] | 0.12 | * | 207 to 209 | – | – | –
Cc1nc2c(N)nc3ccccc3c2n1CCOCc1ccccc1 [Example 127, 1-[2-(Benzyloxy)ethyl]-2-methyl-1H-imidazo[4,5-c]quinolin-4-amine] | 0.01 | – | 159 to 160 | 0.12 | – | –
COc1ccc(CCCOCCn2cnc3c(N)nc4ccccc4c32)cc1 [Example 5, 1-{2-[3-(4-Methoxyphenyl)propoxy]ethyl}-1H-imidazo[4,5-c]quinolin-4-amine] | 0.12 | – | 116 to 118 | 1.11 | – | –
Nc1nc2ccccc2c2c1ncn2CCOCCCc1ccccc1C(=O)O (as salt: trifluoroacetate) [Example 13, 2-{3-[2-(4-Amino-1H-imidazo[4,5-c]quinolin-1-yl)ethoxy]propyl}benzoic acid trifluoroacetate] | – | – | 186 to 188 | – | – | –
N#Cc1ccccc1C#CCOCCn1cnc2c(N)nc3ccccc3c21 [Example 2, 2-{3-[2-(4-Amino-1H-imidazo[4,5-c]quinolin-1-yl)ethoxy]-1-propynyl}benzonitrile] | 1.11 | * | 180 to 183 | – | – | –
Cc1ccc(C#CCOCCn2cnc3c(N)nc4ccccc4c32)cc1C [Example 23, 1-(2-{[3-(3,4-Dimethylphenyl)-2-propynyl]oxy}ethyl]-1H-imidazo[4,5-c]quinolin-4-amine] | 1.11 | * | 214 to 216 | – | – | –
Nc1nc2ccccc2c2c1nc(C1CCCC1)n2CCOc1ccccc1 [Example 135, 2-Cyclopentyl-1-(2-phenoxyethyl)-1H-imidazo[4,5-c]quinolin-4-amine] | – | * | 216 to 217.9 | – | * | –
CCCCc1nc2c(N)nc3ccccc3c2n1CCOCC#Cc1ccccc1 [Example 123, 2-Butyl-1-{2-[(3-phenylprop-2-ynyl)oxy]ethyl}-1H-imidazo[4,5-c]quinolin-4-amine] | 0.12 | – | 133 to 140 | 10 | – | –
CCCCCCCCc1nc2c(N)nc3ccccc3c2n1CCOCC#Cc1ccccc1 [Example 116, 2-Octyl-1-{2-[(3-phenylprop-2-ynyl)oxy]ethyl}-1H-imidazo[4,5-c]quinolin-4-amine] | – | * | 138 to 138.7 | – | * | –
Cl.Nc1nc2ccccc2c2c1ncn2CCOCC#Cc1ccccc1 [Example 4, 1-{2-[(3-Phenyl-2-propynyl)oxy]ethyl}-1H-imidazo[4,5-c]quinolin-4-amine Hydrochloride] | – | * | 231 to 236 | – | – | 0.12
CC[C@H](COCC#Cc1ccccc1)n1cnc2c(N)nc3ccccc3c21 [Example 108, 1-((1R)-1-{[(3-Phenylprop-2-ynyl)oxy]methyl}propyl)-1H-imidazo[4,5-c]quinolin-4-amine] | 0.00017 | – | 63 to 67 | 0.04 | – | –
CC(C)c1ccccc1C#CCOCCn1cnc2c(N)nc3ccccc3c21 (as salt: hydrochloride) [Example 7, 1-(2-{[3-(2-Isopropylphenyl)-2-propynyl]oxy}ethyl)-1H-imidazo[4,5-c]quinolin-4-amine Hydrochloride] | – | – | 239 to 241 | – | – | –
COCCc1nc2c(N)nc3ccccc3c2n1CCOCCCc1ccccc1 [Example 121, 2-(2-Methoxyethyl)-1-[2-(3-phenylpropoxy)ethyl]-1H-imidazo[4,5-c]quinolin-4-amine] | 0.01 | – | 103.8 to 104.5 | 0.04 | – | –
CCOCc1nc2c(N)nc3ccccc3c2n1CCOCCCc1ccccc1 (as salt: hydrochloride) [Example 16, 2-(Ethoxymethyl)-1-[2-(3-phenylpropoxy)ethyl]-1H-imidazo[4,5-c]quinolin-4-amine Hydrochloride] | – | – | 128 to 134 | – | – | –
Nc1nc2ccccc2c2c1nc(CC1CC1)n2CCOc1ccccc1 [Example 137, 2-(Cyclopropylmethyl)-1-(2-phenoxyethyl)-1H-imidazo[4,5-c]quinolin-4-amine] | – | – | 191.7 to 192.6 | – | – | –
Cc1cccc(C)c1C#CCOCCn1cnc2c(N)nc3ccccc3c21 [Example 8, 1-(2-{[3-(2,6-Dimethylphenyl)-2-propynyl]oxy}ethyl)-1H-imidazo[4,5-c]quinolin-4-amine] | 1.11 | – | 200 to 201 | 10 | – | –
CCCCc1nc2c(N)nc3ccccc3c2n1CCOCCCc1ccccc1 [Example 124, 2-Butyl-1-[2-(3-phenylpropoxy)ethyl]-1H-imidazo[4,5-c]quinolin-4-amine] | 1.11 | – | 80.8 to 81.3 | 10 | – | –
Nc1nc2ccccc2c2c1ncn2CCOCCCc1ccc(C(=O)O)cc1 (as salt: trifluoroacetate) [Example 14, 4-{3-[2-(4-Amino-1H-imidazo[4,5-c]quinolin-1-yl)ethoxy]propyl}benzoic acid trifluoroacetate] | – | – | 235 to 237 | – | – | –
Nc1nc2ccccc2c2c1ncn2CCOCCCc1cccc(C(=O)O)c1 (as salt: trifluoroacetate) [Example 12, 3-{3-[2-(4-Amino-1H-imidazo[4,5-c]quinolin-1-yl)ethoxy]propyl}benzoic acid bis(trifluoroacetate)] | – | – | 138 to 140 | – | – | –
CN(C)c1ccc(CCCOCCn2cnc3c(N)nc4ccccc4c32)cc1 (as salt: trifluoroacetate) [Example 114, 1-(2-{3-[4-(Dimethylamino)phenyl]propoxy}ethyl)-1H-imidazo[4,5-c]quinolin-4-amine] | – | – | 137 to 140 | – | – | –
Nc1nc2ccccc2c2c1ncn2CCOCCCc1ccc(-n2cccc2)cc1 (as salt: trifluoroacetate) [Example 11, 1-(2-{3-[4-(1H-1-Pyrrolyl)phenyl]propoxy}ethyl)-1H-imidazo[4,5-c]quinolin-4-amine trifluoroacetate] | – | – | 179 to 181 | – | – | –
CN(C)c1cccc(CCCOCCn2cnc3c(N)nc4ccccc4c32)c1 [Example 15, 1-(2-{3-[3-(Dimethylamino)phenyl]propoxy}ethyl)-1H-imidazo[4,5-c]quinolin-4-amine dihydrochloride] | 0.12 | * | – | – | – | –
CC(Cn1cnc2c(N)nc3ccccc3c21)Oc1ccccc1[N+](=O)[O-] (stereo not drawn) [Example 51] | 0.37 | * | – | – | – | –
